This test has as its system nitrification. Briefly: Inhibition of nitrification in soil incubation test (ammonium and nitrate content after 14 days). Conditions: 100 g soil, 10 mg ammoniumsulfate-N, 20° C., 0 and 14 days; for NI* @ 1%: compound at 1% of nitrogen N; for NI* @ 0.3%: compound at 0.3% of nitrogen N; for NI* @ 3%: compound at 3% (of nitrogen N). Here is the method: The compounds of the invention have been tested as follows in terms of the inhibition of nitrification:
100 g soil is filled into 500 ml plastic bottles (e.g. soil sampled from the field) and is moistened to 50% water holding capacity. The soil is incubated at 20° C. for two weeks to activate the microbial biomass. 1 ml test solution, containing the compound in the appropriate concentration (usually 0.3 or 1% of nitrogen N), or DMSO and 10 mg nitrogen in the form of ammoniumsulfate-N is added to the soil and everything mixed well. Bottles are capped but loosely to allow air exchange. The bottles are then incubated at 20° C. for 0 and 14 days.
For analysis, 300 ml of a 1% K2SO4-solution is added to the bottle containing the soil and shaken for 2 hours in a horizontal shaker at 150 rpm. Then the whole solution is filtered through a filter (Macherey-Nagel Filter MN 807%). Ammonium and nitrate content is then analyzed in the filtrate in an autoanalyzer at 550 nm (Merck, AA11).
The inhibition (NI® a specified concentration) is calculated as follows: […]

On to `CCSC1=NCCS1` [Cmpd. 9, 2-(Ethylthio)-2-thiazoline], for which the “NI* @ 1%” value is 22.

In the case of `CSC1=NCCS1` [Cmpd 1, 2-(Methylthio)-2-thiazoline], the “NI* @ 0.3%” value amounted to 60.1, the “NI* @ 1%” value was found to be 90.2 and the “NI* @ 3%” value was 88.

Turning to `SC1=NCCS1` [Cmpd 3, 2-Mercapto-2-thiazoline], the “NI* @ 1%” value amounted to 47 and the “NI* @ 3%” value is recorded as 83.5.

In the case of `CC#CSC1=NCCS1` [Cmpd 2, 2-(Propynylthio)-2-thiazoline], the “NI* @ 3%” value was determined as 76.3.

On to `CCNC(=O)SC1=NCCS1` [Cmpd. 8, 2-(Ethylaminocarbonylthio)-2-thiazoline], for which the “NI* @ 3%” value was 43.1.

In the case of `CC1(C)CSC(S)=N1` [Cmpd 4, 4,4-Dimethyl-2-mercaptothiazoline], the “NI* @ 3%” value is given as 57.5.

As to `Cc1cc(Cl)ccc1SC1=NCCS1` [Cmpd. 7, 2-(4-Chloro-2-methylphenylthio)-2-thiazoline], the “NI* @ 1%” value came to 25.7 and the “NI* @ 3%” value was 48.8.

On to `O=C(Nc1ccccc1)SC1=NCCS1` [Cmpd 5, 2-(Phenylaminocarbonylthio)-2-thiazoline], for which the “NI* @ 3%” value was 55.

For `CN(C)C(=S)SC1NCCS1` (stereo not drawn) [Cmpd. 11, 4,5-dihydro-3H-thiazol-2-yl N,N-dimethylcarbamodithioate], the “NI* @ 1%” value was found to be 31.2 and the “NI* @ 3%” value came to 58.4.

For `Br.O=C(CSC1=NCCS1)c1ccccc1` [Cmpd 6, 2-(2-Thiazolin-2-ylthio)-acetophenone, hydrobromide], the “NI* @ 0.3%” value was 21, the “NI* @ 1%” value was 31 and the “NI* @ 3%” value is 53.9.

`COC(=O)CSC1=NCCS1` [Cmpd. 10, (2-Thiazolin-2-ylthio)-acetic acid, methyl ester]: the “NI* @ 1%” value is on record as 21.5.

Source of the values: US12122728B2, “Use of substituted 2-thiazolines as nitrification inhibitors” (BASF SE, priority 2018, dated 2024).
